Among the data in patent US9187426B2, “Organic compounds” (Novartis AG, priority 2008, dated 2015) are IC50 and melting point values, retold here.

The structures appear in SMILES notation. Structures can show the parent of a compound that is named as a salt.

The target in data set [1] is T1, Stearoyl-CoA Desaturase (SCD1) (Mus musculus, UniProt P13516).
T1 construct: Reactions are started by adding 50 μL of microsomes (1.25 mg/mL); from tissue; host or cells: liver microsomes of male ICR outbred mice on a high-carbohydrate, low-fat diet
T1 sequence (P13516 1-355): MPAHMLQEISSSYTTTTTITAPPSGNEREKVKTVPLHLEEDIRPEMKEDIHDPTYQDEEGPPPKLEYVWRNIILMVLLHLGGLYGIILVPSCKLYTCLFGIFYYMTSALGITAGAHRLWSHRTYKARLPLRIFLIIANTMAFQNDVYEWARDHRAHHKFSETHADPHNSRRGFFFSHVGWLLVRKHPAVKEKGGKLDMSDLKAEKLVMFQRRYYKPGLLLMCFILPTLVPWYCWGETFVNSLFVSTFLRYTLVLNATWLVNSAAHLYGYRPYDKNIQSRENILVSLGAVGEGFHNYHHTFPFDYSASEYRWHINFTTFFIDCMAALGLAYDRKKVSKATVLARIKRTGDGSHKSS
Briefly: SCD microsomal assay: release of 3H2O from [9,10-3H]stearoyl-CoA in mouse liver microsomes. Format: biochemical. The note with it: 15 min incubation, 25° C. An excerpt: Measuring Stearoyl-CoA Desaturase Inhibition Activity of a Test Compound Using Mouse Liver Microsomes
The identification of compounds of the invention as SCD inhibitors was readily accomplished using the SCD microsomal assay procedure described in Shanklin J. and Summerville C., Proc. Natl. Acad. Sci. USA (1991), Vol. 88, pp. 2510-2514.
Male ICR outbread mice, on a high-carbohydrate, low fat diet, under light halothane (15% in mineral oil) anesthesia are sacrificed by exsanguination during periods of high enzyme activity. Livers are immediately rinsed with cold 0.9% NaCl solution, weighed and minced with scissors. All procedures are performed at 4° C. unless specified otherwise. Livers are homogenized in a solution (1/3 w/v) containing 0.25 M sucrose, 62 mM potassium phosphate buffer (pH 7.0), 0.15 M KCl, 15 mM N-acetyleysteine, 5 mM MgCl2, and 0.1 mM EDTA using 4 strokes of a Potter-Elvehjem tissue homogenizer. The homogenate is centrifuged at 10,400×g for 20 min to eliminate mitochondria and cellular debris. The supernatant is filtered through a 3-layer cheesecloth and centrifuged at 105,000×g for 60 min. The microsomal pellet is gently resuspended in the same homogenization solution with a small glass/teflon homogenizer and stored at −70° C. The absence of mitochondrial contamination is enzymatically assessed. The protein concentration is measured using bovine serum albumin as the standard.
Desaturase activity is measured as the release of ^3H2O from [9,10-^3H]stearoyl-CoA. Reactions per assay point conditions are as follows: 2 μL 1.5 mM stearoyl-CoA, 0.25 μL 1 mCi/mL ^3H stearoyl CoA, 10 μL 20 mM NADH, 36.75 μL 0.1 M PK buffer (K2HPO4/NaH2PO4, pH 7.2). The test compound or control solution is added in a 1 μL volume. Reactions are started by adding 50 μL of microsomes (1.25 mg/mL). The plates are mixed and after 15 min incubation on a heating block (25° C.), the reactions are stopped by the addition of 10 μL 60% PCA. An aliquot of 100 μL is then transferred to a filter plate pretreated with charcoal and the plate centrifuged at 4000 rpm for 1 minute. The flow through containing the ^3H2O released by the SCD1 desaturation reaction is added to scintillation fluid and the radioactivity measured in a Packard TopCount. The data is analysed to identify the IC50 for test compounds and reference compounds.
Background: Liver microsomes are vesicles of endoplasmic reticulum, rich in cytochrome P450 enzymes.

`O=C(NCc1ccncc1)c1ccnc(N2CCN(CC3CC3)C2=O)c1` [Example 15.11, 2-(3-(cyclopropylmethyl)-2-oxoimidazolidin-1-yl)-N-(pyridin-4-ylmethyl)isonicotinamide] had a melting point of 160 to 162 °C. In data set [1], this compound returned an IC50 of 0.67 µM.

The compound `O=C(NCc1cncs1)c1ccnc(N2CCN(Cc3ccc(C(F)(F)F)cc3)C2=O)c1` [Example 26.19, 2-(2-Oxo-3-(4-(trifluoromethyl)benzyl)imidazolidin-1-yl)-N-(thiazol-5-ylmethyl)-isonicotinamide] gave a melting point of 163 to 165 °C. In data set [1], this compound showed a concentration for half-maximal inhibition (IC50) of 0.01 µM.

Compound `O=C(NCc1ccc(F)c(F)c1)c1ccnc(N2CCN(Cc3cccnc3)C2=O)c1` [Example 15.17, N-(3,4-difluorobenzyl)-2-(2-oxo-3-(pyridin-3-ylmethyl)imidazolidin-1-yl)isonicotinamide] displayed a melting point of 178 to 180 °C. Also, in data set [1], the IC50 stood at 0.26 µM.

Take `O=C(NCc1cocn1)c1ccnc(N2CCN(Cc3ccc(F)cc3)C2=O)c1` [Example 14, 2-(3-(4-fluorobenzyl)-2-oxoimidazolidin-1-yl)-N-(oxazol-4-ylmethyl)isonicotinamide]: the melting point was 197 to 199 °C. Further, the IC50 in data set [1] is 0.2 µM.

As for `NC(=O)c1ccnc(N2CCN(Cc3ccc(OC(F)(F)F)cc3)C2=O)c1` [Example 26.32, 2-(2-Oxo-3-(4-(trifluoromethoxy)-benzyl)imidazolidin-1-yl)isonicotinamide], the melting point lay in the range of 175 to 176 °C. In addition, inhibition in data set [1] was half-maximal at 1.2 µM (IC50).

Compound `CN(C)c1ccc(C(=O)Nc2cc(C(=O)NCc3ccccc3)ccn2)cc1` [Example 6.11, N-benzyl-2-(4-(dimethylamino)benzamido)isonicotinamide] returned a melting point of 160 to 165 °C. This compound yielded an IC50 in data set [1] of 0.02 µM.

For the compound `O=C(NCc1ccccc1)c1ccnc(NC(=O)c2cc(F)cc(F)c2)c1` [Example 6.8, N-benzyl-2-(3,5-difluorobenzamido)isonicotinamide], the melting point was in the range of 185 to 187 °C. This compound yielded a half-inhibitory concentration (IC50) in data set [1] of 0.41 µM.

Take `O=C(NCc1ccc(F)cc1)c1ccnc(N2CCN(Cc3ccc(F)cc3)C2=O)c1` [Example 15.4, N-(4-fluorobenzyl)-2-(3-(4-fluorobenzyl)-2-oxoimidazolidin-1-yl)isonicotinamide]: the melting point was in the range of 173 to 175 °C. Besides, the IC50 in data set [1] is 0.02 µM.

Turning to `NC(=O)c1ccnc(N2CCN(Cc3ccc(F)c(F)c3)C2=O)c1` [Example 26.30, 2-(3-(3,4-Difluorobenzyl)-2-oxoimidazolidin-1-yl)isonicotinamide], the melting point was 195 to 198 °C. Moreover, in data set [1], the IC50 came out at 1.1 µM.

`NC(=O)c1ccnc(N2CCN(Cc3ccc(C(F)(F)F)cc3)C2=O)c1` [Example 26.31, 2-(2-Oxo-3-(4-(Trifluoromethyl)-benzyl)imidazolidin-1-yl)isonicotinamide] registered a melting point of 167 to 169 °C. The same compound displayed an IC50 in data set [1] of 0.18 µM.

`Cc1cc(CNC(=O)c2ccnc(N3CCN(Cc4ccc(OC(F)(F)F)cc4)C3=O)c2)no1` [Example 26.13, N-((5-Methylisoxazol-3-yl)methyl)-2-(2-oxo-3-(4-(trifluoromethoxy)-benzyl)imidazolidin-1-yl)isonicotinamide] registered a melting point of 129 to 130 °C. In data set [1], this compound came in with a concentration for half-maximal inhibition (IC50) of 0.01 µM.

`Cc1cc(CNC(=O)c2ccnc(N3CCN(Cc4ccc(F)cc4)C3=O)c2)no1` [Example 14.10, 2-(3-(4-fluorobenzyl)-2-oxoimidazolidin-1-yl)-N-((5-methylisoxazol-3-yl)methyl)isonicotinamide] displayed a melting point of 153 to 155 °C. In data set [1], this compound gave an IC50 of 0.26 µM.

For `O=C(NCc1ccccn1)c1ccnc(-n2cnn(Cc3ccc(F)c(F)c3)c2=O)c1` [Example 26.29, 2-(1-(3,4-Difluorobenzyl)-5-oxo-1H-1,2,4-triazol-4(5H)-yl)-N-(pyridin-2-ylmethyl)-isonicotinamide], the IC50 in data set [1] stood at 0.03 µM.

`O=C(NCc1ccccn1)c1ccnc(N2CCN(Cc3ccc(F)cc3)C2=O)c1` [Example 15.3, 2-(3-(4-fluorobenzyl)-2-oxoimidazolidin-1-yl)-N-(pyridin-2-ylmethyl)isonicotinamide dihydrochloride] registered an IC50 in data set [1] of 0.07 µM.

The compound `O=C(NCc1ccccc1)c1ccnc(N2CCC(c3ccccc3)CC2=O)c1` (stereo not shown) [Example 18, 2-oxo-4-phenyl-3,4,5,6-tetrahydro-2H-[1,2′]bipyridinyl-4′-carboxylic acid benzylamide] registered a melting point of 55 to 60 °C.

Regarding `O=C(NCc1ccc(F)cc1)c1ccnc(N2CCN(Cc3ccccn3)C2=O)c1` [Example 15.15, N-(4-fluorobenzyl)-2-(2-oxo-3-(pyridin-2-ylmethyl)imidazolidin-1-yl)isonicotinamide], the melting point was 141 to 142 °C.

For `O=C(NCc1ccc(F)cc1)c1ccnc(N2CCN(CC3CC3)C2=O)c1` [Example 15.6, 2-(3-(cyclopropylmethyl)-2-oxoimidazolidin-1-yl)-N-(4-fluorobenzyl)isonicotinamide], the melting point fell in the range of 150 to 151 °C.

In turn, `O=C(NCc1nccs1)c1ccnc(N2CCN(Cc3ccc(F)c(F)c3)C2=O)c1` [Example 26.25, 2-(3-(3,4-Difluorobenzyl)-2-oxoimidazolidin-1-yl)-N-(thiazol-2-ylmethyl)-isonicotinamide] came in with a melting point of 105 to 107 °C.

`Cc1nc(-c2ccccc2)sc1CNC(=O)c1ccnc(N2CCN(Cc3ccc(F)cc3)C2=O)c1` [Example 14.16, 2-(3-(4-fluorobenzyl)-2-oxoimidazolidin-1-yl)-N-((4-methyl-2-phenylthiazol-5-yl)methyl)isonicotinamide] gave a melting point of 182 to 184 °C.

Consider `O=C(CCc1ccccc1)Nc1cc(C(=O)NCc2ccccc2)ccn1` [Example 5.3, N-benzyl-2-(3-phenylpropanamido)isonicotinamide], for which the melting point was in the range of 177 to 179 °C.

As to `O=C(NCc1nccs1)c1ccnc(-n2cnn(Cc3ccc(F)cc3)c2=O)c1` [Example 26.21, 2-(1-(4-Fluorobenzyl)-5-oxo-1H-1,2,4-triazol-4(5H)-yl)-N-(thiazol-2-ylmethyl)-isonicotinamide], the melting point is 170 to 172 °C.

`O=C(NCc1cnc(Cl)s1)c1ccnc(N2CCN(Cc3ccc(OC(F)(F)F)cc3)C2=O)c1` [Example 26.34, N-((2-Chlorothiazol-5-yl)methyl)-2-(2-oxo-3-(4-(trifluoromethoxy)-benzyl)imidazolidin-1-yl)isonicotinamide]: the melting point is 184 to 186 °C.

With `O=C(NCc1nccs1)c1ccnc(N2CCN(Cc3ccc(OC(F)(F)F)cc3)C2=O)c1` [Example 26.17, 2-(2-Oxo-3-(4-(trifluoromethoxy)benzyl)imidazolidin-1-yl)-N-(thiazol-2-ylmethyl)-isonicotinamide], the melting point fell in the range of 97 to 99 °C.

Turning to `O=C(NCC1CC1)c1ccnc(N2CCN(Cc3ccc(F)cc3)C2=O)c1` [Example 15.5, N-(cyclopropylmethyl)-2-(3-(4-fluorobenzyl)-2-oxoimidazolidin-1-yl)isonicotinamide], the melting point is 135 to 137 °C.

Consider `O=C(NCc1ccccc1)c1ccnc(N2CCN(Cc3ccc4nonc4c3)C2=O)c1` [Example 26.5, 2-(3-(Benzo[c][1,2,5]-oxadiazol-5-ylmethyl)-2-oxoimidazolidin-1-yl)-N-benzylisonicotinamide], for which the melting point lay in the range of 165 to 167 °C.

The term IC50 denotes the concentration that gives 50% inhibition. A low value points to higher potency. The melting point is the temperature of the solid-liquid transition.
